Results: patent US20070128217A1 (priority 2003, published 2007)

Experiments:
[1] = test system: antibodies in sera from SARS patients (sera 1a, 1b, 2, 6, 37, 62, London, SARS-yellow, SARS-green); assay type: binding, human; set-up: Binding of serum 6 to linear peptides of protein X1 of SARS-CoV Urbani / Binding of serum 37 to linear peptides of protein X1 of SARS-CoV Urbani / Binding of serum 6 to looped/cyclic peptide (PEPSCAN-ELISA) / Binding of serum 37 to looped/cyclic peptide (PEPSCAN-ELISA) / Binding of serum 37 to looped/cyclic peptides of protein X1 of SARS-CoV Urbani / Binding of serum 6 to linear peptides of protein X2 / Binding of serum 37 to linear peptides of protein X2 / Binding of serum 37 to looped/cyclic peptides of protein X2 of SARS-CoV Urbani / Binding of serum 6 to linear peptides of protein M of SARS-CoV Urbani / Binding of serum 37 to linear peptides of protein M of SARS-CoV Urbani / Binding of serum 6 to looped/cyclic peptides of protein M of SARS-CoV Urbani / Binding of serum 37 to looped/cyclic peptides of protein M of SARS-CoV Urbani / Binding of serum 6 to linear peptides of protein X3 of SARS-CoV Urbani / Binding of serum 37 to linear peptides of protein X3 of SARS-CoV Urbani / Binding of serum 37 to looped/cyclic peptides of protein X3 of SARS-CoV Urbani / Binding of serum 6 to linear peptides of protein X4 of SARS-CoV Urbani / Binding of serum 37 to linear peptides of protein X4 of SARS-CoV Urbani / Binding of serum 37 to looped/cyclic peptides of protein X4 of SARS-CoV Urbani / Binding of serum 6 to linear peptides of protein X5 of SARS-CoV Urbani / Binding of serum 37 to linear peptides of protein X5 of SARS-CoV Urbani / Binding of serum 37 to looped/cyclic peptides of protein X5 of SARS-CoV Urbani / Binding of serum 6 to linear peptides of protein N of SARS-CoV Urbani / Binding of serum 37 to linear peptides of protein N of SARS-CoV Urbani / Binding of serum 6 to linear peptide (PEPSCAN-ELISA) / Binding of serum 1a to looped/cyclic peptides of protein N of SARS-CoV Urbani / Binding of serum 1b to looped/cyclic peptides of protein N of SARS-CoV Urbani / Binding of serum 2 to looped/cyclic peptides of protein N of SARS-CoV Urbani / Binding of serum 6 to looped/cyclic peptides of protein N of SARS-CoV Urbani / Binding of serum 37 to looped/cyclic peptides of protein N of SARS-CoV Urbani / Binding of serum 62 to looped/cyclic peptides of protein N of SARS-CoV Urbani / Binding of serum London to looped/cyclic peptides of protein N of SARS-CoV Urbani / Binding of serum SARS-green to looped/cyclic peptides of protein N of SARS-CoV Urbani: unit not given here
[2] = test system: control sera (pooled serum of ten healthy LUMC hospital workers; commercial negative donor pooled serum from the Dutch bloodbank); assay type: binding, human; set-up: Binding of Control serum LUMC to linear peptides / Binding of Control serum Blood-bank to linear peptides / Binding of Control serum LUMC to looped peptides / Binding of Control Serum Blood-Bank to Looped peptides / Binding of Control serum LUMC to linear peptides of the protein M of SARS-CoV Urbani / Binding of Control serum Blood-bank to linear peptides of the protein M of SARS-CoV Urbani / Binding of Control serum LUMC to looped peptides of the protein M of SARS-CoV Urbani / Binding of Control Serum Blood-Bank to Looped peptides of the protein M of SARS-CoV Urbani: unit not given here
[3] = test system: rabbit serum obtained by immunizing a rabbit with the SARS-CoV strain Frankfurt 1; assay type: binding; set-up: Binding of a rabbit serum to linear peptides / Binding of a rabbit serum to looped peptides / Rabbit serum linear peptides / Rabbit serum looped peptides / Binding of a rabbit serum to linear peptides of protein N of SARS-CoV Urbani (Rabbit serum linear peptides) / Binding of a rabbit serum to looped/cyclic peptides of protein N of SARS-CoV Urbani (Rabbit serum looped peptides): unit not given here

LWLLWPVTLACFVLA
Binding of serum 1a to linear peptides of protein M of SARS-CoV Urbani [1]: 0.7 | Binding of serum 1a to looped/cyclic peptides of protein M of SARS-CoV Urbani [1]: 0.7 | Binding of serum 1b to linear peptides of protein M of SARS-CoV Urbani [1]: 0.6 | Binding of serum 1b to looped/cyclic peptides of protein M of SARS-CoV Urbani [1]: 0.4 | Binding of serum 2 to linear peptides of protein M of SARS-CoV Urbani [1]: 0.4 | Binding of serum 2 to looped/cyclic peptides of protein M of SARS-CoV Urbani [1]: 0.6 | Binding of serum 6 to linear peptides of protein M of SARS-CoV Urbani [1]: 0.5 | Binding of serum 6 to looped/cyclic peptides of protein M of SARS-CoV Urbani [1]: 0.5 | Binding of serum 37 to linear peptides of protein M of SARS-CoV Urbani [1]: 0.4 | Binding of serum 37 to looped/cyclic peptides of protein M of SARS-CoV Urbani [1]: 0.7 | Binding of serum 62 to linear peptides of protein M of SARS-CoV Urbani [1]: 0.4 | Binding of serum 62 to looped/cyclic peptides of protein M of SARS-CoV Urbani [1]: 0.6 | Binding of serum London to linear peptides of protein M of SARS-CoV Urbani [1]: 0.4 | Binding of serum London to looped/cyclic peptides of protein M of SARS-CoV Urbani [1]: 0.2 | Binding of serum SARS-green to linear peptides of protein M of SARS-CoV Urbani [1]: 0.4 | Binding of serum SARS-green to looped/cyclic peptides of protein M of SARS-CoV Urbani [1]: 0.2 | Binding of serum SARS-yellow to linear peptides of protein M of SARS-CoV Urbani [1]: 0.2 | Binding of serum SARS-yellow to looped/cyclic peptides of protein M of SARS-CoV Urbani [1]: 0.6 | Binding of Control Serum Blood-Bank to Looped peptides of the protein M of SARS-CoV Urbani [2]: 0.5 | Binding of Control serum Blood-bank to linear peptides of the protein M of SARS-CoV Urbani [2]: 0.5 | Binding of Control serum LUMC to linear peptides of the protein M of SARS-CoV Urbani [2]: 0.5 | Binding of Control serum LUMC to looped peptides of the protein M of SARS-CoV Urbani [2]: 0.6 | Rabbit serum linear peptides [3]: 0.1 | Rabbit serum looped peptides [3]: 0.4

LWPVTLACFVLAAVY
Binding of serum 1a to linear peptides of protein M of SARS-CoV Urbani [1]: 0.7 | Binding of serum 1a to looped/cyclic peptides of protein M of SARS-CoV Urbani [1]: 0.7 | Binding of serum 1b to linear peptides of protein M of SARS-CoV Urbani [1]: 0.6 | Binding of serum 1b to looped/cyclic peptides of protein M of SARS-CoV Urbani [1]: 0.5 | Binding of serum 2 to linear peptides of protein M of SARS-CoV Urbani [1]: 0.6 | Binding of serum 2 to looped/cyclic peptides of protein M of SARS-CoV Urbani [1]: 0.7 | Binding of serum 6 to linear peptides of protein M of SARS-CoV Urbani [1]: 0.3 | Binding of serum 6 to looped/cyclic peptides of protein M of SARS-CoV Urbani [1]: 0.6 | Binding of serum 37 to linear peptides of protein M of SARS-CoV Urbani [1]: 0.7 | Binding of serum 37 to looped/cyclic peptides of protein M of SARS-CoV Urbani [1]: 0.7 | Binding of serum 62 to linear peptides of protein M of SARS-CoV Urbani [1]: 0.8 | Binding of serum 62 to looped/cyclic peptides of protein M of SARS-CoV Urbani [1]: 0.6 | Binding of serum London to linear peptides of protein M of SARS-CoV Urbani [1]: 0.3 | Binding of serum London to looped/cyclic peptides of protein M of SARS-CoV Urbani [1]: 0.2 | Binding of serum SARS-green to linear peptides of protein M of SARS-CoV Urbani [1]: 0.2 | Binding of serum SARS-green to looped/cyclic peptides of protein M of SARS-CoV Urbani [1]: 0.2 | Binding of serum SARS-yellow to linear peptides of protein M of SARS-CoV Urbani [1]: 0.0 | Binding of serum SARS-yellow to looped/cyclic peptides of protein M of SARS-CoV Urbani [1]: 0.5 | Binding of Control Serum Blood-Bank to Looped peptides of the protein M of SARS-CoV Urbani [2]: 0.6 | Binding of Control serum Blood-bank to linear peptides of the protein M of SARS-CoV Urbani [2]: 0.6 | Binding of Control serum LUMC to linear peptides of the protein M of SARS-CoV Urbani [2]: 0.4 | Binding of Control serum LUMC to looped peptides of the protein M of SARS-CoV Urbani [2]: 0.7 | Rabbit serum linear peptides [3]: 0.4 | Rabbit serum looped peptides [3]: 0.4

LYSPLFLIVAALVFL
Binding of serum 1a to linear peptides of protein X4 of SARS-CoV Urbani [1]: 0.6 | Binding of serum 1a to looped/cyclic peptides of protein X4 of SARS-CoV Urbani [1]: 0.5 | Binding of serum 1b to linear peptides of protein X4 of SARS-CoV Urbani [1]: 0.4 | Binding of serum 1b to looped/cyclic peptides of protein X4 of SARS-CoV Urbani [1]: 0.3 | Binding of serum 2 to linear peptides of protein X4 of SARS-CoV Urbani [1]: 0.4 | Binding of serum 2 to looped/cyclic peptides of protein X4 of SARS-CoV Urbani [1]: 0.4 | Binding of serum 6 to linear peptides of protein X4 of SARS-CoV Urbani [1]: 0.5 | Binding of serum 6 to looped/cyclic peptides of protein X4 of SARS-CoV Urbani [1]: 0.4 | Binding of serum 37 to linear peptides of protein X4 of SARS-CoV Urbani [1]: 0.6 | Binding of serum 37 to looped/cyclic peptides of protein X4 of SARS-CoV Urbani [1]: 0.5 | Binding of serum 62 to linear peptides of protein X4 of SARS-CoV Urbani [1]: 0.6 | Binding of serum 62 to looped/cyclic peptides of protein X4 of SARS-CoV Urbani [1]: 0.5 | Binding of serum London to linear peptides of protein X4 of SARS-CoV Urbani [1]: 0.6 | Binding of serum London to looped/cyclic peptides of protein X4 of SARS-CoV Urbani [1]: 0.2 | Binding of serum SARS-green to linear peptides of protein X4 of SARS-CoV Urbani [1]: 0.5 | Binding of serum SARS-green to looped/cyclic peptides of protein X4 of SARS-CoV Urbani [1]: 0.4 | Binding of serum SARS-yellow to linear peptides of protein X4 of SARS-CoV Urbani [1]: 0.2 | Binding of serum SARS-yellow to looped/cyclic peptides of protein X4 of SARS-CoV Urbani [1]: 0.4 | Binding of Control Serum Blood-Bank to Looped peptides [2]: 0.6 | Binding of Control serum Blood-bank to linear peptides [2]: 0.5 | Binding of Control serum LUMC to linear peptides [2]: 0.4 | Binding of Control serum LUMC to looped peptides [2]: 0.6 | Rabbit serum linear peptides [3]: 0.4 | Rabbit serum looped peptides [3]: 0.3
